Laboratory results from patent publication US10513514B2, “Piperidine compounds as PCSK9 inhibitors” (SHENZHEN SALUBRIS PHARM CO LTD, priority 2017, dated 2019).

What was measured:
PCSK9 = PCSK9 (Homo sapiens (Human), UniProt Q8NBP7); assay: In vitro screening experiment (AlphaLISA anti-PCSK9, PCSK9-Huh7 cells); format: cell-based; settings: 20 h incubation, AlphaLISA reading
Method: 1) Preparation of 1× AlphaLISA test buffer solution:
2.5 ml of 10× AlphaLISA test buffer solution was added to 22.5 ml of Milli-Q water to produce the 1× AlphaLISA test buffer solution.
50 μL of 5 mg/mL Alpha LISA Anti-PCSK9 Acceptor beads and 50 μL of 500 nM Biotinylated Antibody Anti-PCSK9 were added to 9,900 μL of 1× AlphaLISA test buffer solution.
3) Preparation of 2× Streptavidin (SA) Donor beads (80 μg/mL):
200 μL of 5 mg/mL SA-Donor beads was added to 12,300 μL of 1× AlphaLISA test buffer solution.
3) 20 μL/pore mixture of 2.5× AlphaLISA Acceptor beads and Biotinylated Antibody Anti-PCSK9 was added, and incubated at 23° C. for 60 min.
4) 25 μL/pore 2× Streptavidin (SA) Donor beads were added; and incubated for 30 min at 23° C. (kept in dark place).
5) EnVision-Alpha Reader reading:
Date was analyzed with Prismsoftware (nonlinear regression (Sigmoidal dose-response-variable slope) Inhibition ratio %=100*(Sample reading−LC reading)/(HC reading−LC reading) Computational formula: […]

[1] = Research of pharmacokinetic properties in SD rats (bioavailability); format: in vivo; settings: male SD rats; 1 mg/kg intravenous injection, 5 mg/kg by gavage
Method: Research of Pharmacokinetic Properties in SD Rats
This example was intended to evaluate the PK properties of test compound, and calculate the bioavailability in male SD rats. Each test compound used six male SD rats, Six male SD rats were randomly divided into two groups. Three rats were respectively administrated with the dose of 1 mg/kg by intravenous injection; the whole blood was collected at 0.0833, 0.25, 0.5, 1, 2, 4, 6, 8 and 24 h after administration and plasma samples were prepared. The other three rats were respectively administrated with the dose of 5 mg/kg by gavage, the whole blood was collected at 0.25, 0.5, 1, 2, 4, 6, 8 and 24 h after administration, and plasma samples were prepared. the concentration of the test compound in the plasma was tested by LC/MS/MS method, and relevant PK parameters was calculated with Phoenix WinNonlin 6.2.1.
For the bioavailability data, see table 2.

SMILES | IC50 (PCSK9) [µM] | F in rats (%) [1] [%]
Cc1cnc(N(C(=O)c2ccc(C3=NOC(C)(C)C3=O)cc2)[C@@H]2CCCNC2)c(C)c1 [WX012] | < 10 | 
Cc1cc(C(=O)N(c2ncccc2Cl)[C@@H]2CCCNC2)ccc1C1=NOC(C)(C)C1=O [WX022] | < 10 | 
COCc1cccnc1N(C(=O)c1ccc(C2=NOC(C)(C)C2=O)cc1)[C@@H]1CCCNC1 [WX041] | < 10 | 
COc1cccnc1N(C(=O)c1ccc(C2=NOC(C)(C)C2=O)cc1)[C@@H]1CCCNC1 [WX009] | < 10 | 
Cc1cc(C(=O)N(c2ncccc2C)[C@@H]2CCCNC2)ccc1C1=NOC(C)(C)C1=O [WX024] | < 10 | 
CC1(C)ON=C(c2ccc(C(=O)N(c3ncccc3F)[C@@H]3CCCNC3)cc2)C1=O [WX013] | < 10 | 
CC1(C)ON=C(c2ccc(C(=O)N(c3nccc4c3COC4)[C@@H]3CCCNC3)cc2)C1=O [WX026] | < 10 | 
Cc1cc(C2=NOC(C)(C)C2=O)ccc1C(=O)N(c1ncccc1Cl)[C@@H]1CCCNC1 [WX021] | < 10 | 37.7
Cc1cccnc1N(C(=O)c1ccc(C2=NOC(C)(C)C2=O)cc1F)[C@@H]1CCCNC1 [WX027] | < 10 | 58.8
CC1(C)ON=C(c2ccc(C(=O)N(c3ccccn3)[C@@H]3CCCNC3)cc2)C1=O [WX006] | < 10 | 
Cc1cccnc1N(C(=O)c1ccc(C2=NOC(C)(C)C2=O)cc1)[C@@H]1CCCNC1 [WX002] | < 10 | 68.0
Cc1cc(Cl)cnc1N(C(=O)c1ccc(C2=NOC(C)(C)C2=O)cc1)[C@@H]1CCCNC1 [WX011] | < 10 | 
Cc1cccnc1N(C(=O)c1ccc(C2=NOC(C)(C)/C2=N\O)cc1)[C@@H]1CCCNC1 [WX039] | < 10 | 
CC1(C)ON=C(c2ccc(C(=O)N(c3ncccc3-c3ccccc3)[C@@H]3CCCNC3)cc2)C1=O [WX038] | < 10 | 
Cc1ccnc(N(C(=O)c2ccc(C3=NOC(C)(C)C3=O)cc2)[C@@H]2CCCNC2)c1Cl [WX015] | < 10 | 
CO/N=C1/C(c2ccc(C(=O)N(c3ncccc3C)[C@@H]3CCCNC3)cc2)=NOC1(C)C [WX040] | < 10 | 56.3
CC1(C)ON=C(c2ccc(C(=O)N(c3ncccc3Cl)[C@@H]3CCCNC3)cc2)C1=O [WX001] | < 10 | 83.9
O=C(c1ccc(-n2nnc3cccnc32)cc1)N(c1ncccc1Cl)[C@@H]1CCCNC1 [PF-06446846, reference compound] |  | 20
CC1(C)ON=C(c2ccc(C(=O)N(c3ncccc3-c3ccncc3)[C@@H]3CCCNC3)cc2)C1=O [WX037] | < 10 | 
Cc1cc(F)cnc1N(C(=O)c1ccc(C2=NOC(C)(C)C2=O)cc1)[C@@H]1CCCNC1 [WX008] | < 10 | 
Cc1cccnc1N(C(=O)c1ccc(C2=NOC(C)(C)C2O)cc1)[C@@H]1CCCNC1 (stereo partly drawn) [WX025] | < 10 | 
Cc1cc(C2=NOC(C)(C)C2=O)ccc1C(=O)N(c1ncccc1C)[C@@H]1CCCNC1 [WX023] | < 10 | 
